In article PMC8386742, “Discovery of N-aryl sulphonamide-quinazoline derivatives as anti-gastric cancer agents in vitro and in vivo via activating the Hippo signalling pathway” (Journal of Enzyme Inhibition and Medicinal Chemistry, 2021):

Tests used:
Hippo signalling pathway = assay: Western blotting / mRNA of Hippo related proteins in MGC-803 and SGC-7901 cells; format: cell-based
Source text: Phosphorylation of YAP is the process of YAP inactivation. YAP protein is inactivated (phosphorylated) by Hippo cascade pathway in cells. […] We also investigated the influence of 9i on upstream signal-regulated molecules of the Hippo pathway. […] Transcription factor TEAD interacts with YAP to express downstream substrates, the level of TEAD was not changed by compound 9i (Figures 4(A,B)). Yap entering the nucleus is a key step of substrates expression. With the treatment of compound 9i, the level of YAP inside nuclear was decreased (Figure 4(C)).
Figure 4. Influence of 9i on the Hippo signalling pathway in two gastric cancer cells. Density ratios relative to its loading control protein (β-Actin/LaminB1/GAPDH) were shown on the top of each Western blotting band. (A) The levels of Hippo related proteins, cells were treated with indicated concentrations of 9i for 12 h; (B) The levels of Hippo related proteins in different hours after the treatment with 450 nM of 9i; (C) Level of YAP in the cytoplasm and nuclear, cells were treated for 12 h with 450 nM of 9i; (D) Levels of Bcl-2 and c-Myc in MGC-803 cells after the treatment with 450 nM of 9i for different hours; (E) mRNA levels of Bcl-2 and c-My in MGC-803 cells after the treatment with 450 nM of 9i 12 h. Data were presented as mean ± SD.
2 gastric cancer cells were seeded in dishes and treated with 9i or DMSO. After 48 h, MGC-803 and SGC-7901 cells were collected and then lysed. The denatured lysates of each groups were electrophoretic separated in SDS-PAGE. Proteins were then transferred onto PVDF membranes from gels. After blocking for 2 h, membranes were incubated with primary antibodies conjugation. Then, the membranes were washed and incubated with 2nd antibodies. At last, specific proteins were detected.

HGC-27 cells = assay: MTT antiproliferative assay, HGC-27 gastric cancer cells; format: cell-based
Protocol: (§1) Furthermore, MGC-803 cells were more sensitive to the compounds than HCT-116, PC-3 cells MCF-7 cells. Moreover, we chose two other common gastric cancer cell lines (HGC-27 and SGC-7901) and another two normal cells GES-1 and HUEVC cells to examine for the inhibitory activity of compound 9i.
(§2) Cell lines used were cultured in humidified incubator in a humidified atmosphere of 5% CO2 and 95% air. The RPMI-1640 medium was supplemented with 10% foetal bovine serum, penicillin (100 U/ml) and streptomycin (0.1 mg/ml).
(§3) Cell lines were seeded into 96-well plates and incubated for 24 h. Then cells were treated with different concentrations of compounds. And after another 48 h, MTT reagent (20 μL per well) was added to each well and then incubated at 37 °C for 4 h. After the suspension was discarded, formazan was then dissolved with DMSO. Absorbencies of formazan solution were measured at 490 nm. The IC50 values of tested compounds were calculated by SPSS version 17.0.

MGC-803 xenograft tumour = assay: MGC-803 xenograft model; format: in vivo, nude mice
Protocol: When the tumour volume reached 100 mm^3, vehicle control, compound 9i, and 5-FU were administered by daily intraperitoneal injection for 21 consecutive days. During the treatment, tumour volume and body weight of nude mice were measured every 3 days from the beginning of treatment. […] Tumour weight was measured after the execution of animals, the inhibition rate of the compound 9i treated group was over 60% than the vehicle group (Figures 7(B,C)). Tunnel staining was used for cell apoptosis detection, as shown in Figure 7(D), compound 9i increased the level of cell apoptosis. […] Next, the levels of YAP, Bcl-2, c-Myc, Ki67, and cleaved PARP in tissues were detected using immunochemistry to validate the results. […] The data indicated compound 9i inhibited YAP to inhibit the tumour in vivo.
A human gastric cancer subcutaneous transplantation tumour model was established with MGC-803 cells. After the tumour volume reaches 100 mm3 the MGC-803 bearing mice were randomised into 3 groups and intraperitoneal injection with normal saline or drugs continuously for 21 days. Tumour volume was measured every 3 days (Length × Width2/2). Mice were executed after treatment. 500 μL blood samples was collected each mouse, samples were then centrifuged at 2000 g for 10 min for biochemistry analysis. Tumour and organs tissues were harvested for H&E staining or immunochemistry detection. The experiments in the study were performed comply with the protocols approved by the Institutional Animal Care and Use Committee, Zhengzhou University.

tubulin = assay: Tubulin polymerization, extracellular; format: biochemical; settings: 3 μmol/L
Source text: In this work, compound 9i was design and synthesized by SAR study of our reported tertiary amide derivatives compound 1 and compound 2. Therefore, we tested the influence of compound 9i on tubulin polymerization and AKT/mTOR and ERK […]
influence on tubulin polymerization and P38, ERK, AKT, mTOR and Wnt pathways . […]
pathway. Therefore, we here reported N-sulfonamide-quinazoline derivatives as novel anti-gastric cancer agents via activating the Hippo signaling pathway in vitro and in […]
Supporting Figure S1. A. Activity of compound 9i on tubulin polymerization . Tubulin polymerization extracellular, concentrations of Paclitaxel, Colchicine and 9i were 3 μmol/L; Activity of compound 9i on P38, ERK, AKT, mTOR and Wnt pathways, cells were incubated with […]
(1 picture or pasted object on this page, not shown here)

[1] = test system: MGC-803 and SGC-7901 cells; assay: Colony formation assay in gastric cancer cells; format: cell-based; settings: 150 nM, 7 days
Source text: Because of the potent inhibitory activity on cell viability of compound 9i, we next explored the effects of compound 9i on cell proliferation in MGC-803 and SGC-7901 cells.
Figure 6. Gastric cancer cell proliferation inhibition inhibited by 9i. Density ratios relative to β-Actin were shown on the top of each Western blotting band. (A,B) Cell growth curves of in MGC-803 and SGC-7901 cells after the treatment with indicated concentrations of 9i for different hours; (C,D). Gastric cancer cell colony formation, cells were treated for 7 days; (E) Cell cycle distribution of MGC-803 and SGC-7901 after the treatment with indicated concentrations of 9i for 24 h; (F,G) Cell cycle related proteins in gastric cancer cells after the treatment with indicated concentrations of 9i for 24 h.
In this work, some other assays including colony formation assay, cell apoptosis assay and immunostaining assay were referred to our previous work[35]^,[36].

SGC-7901 cells = assay: MTT antiproliferative assay, SGC-7901 gastric cancer cells; format: cell-based; settings: Homo sapiens, SGC-7901, exposure for 48 h
Protocol: as §1, §2, §3

## COc1ccc(S(=O)(=O)N(Cc2nc(C)c3ccccc3n2)c2cc(OC)c(OC)c(OC)c2)cc1 [Compound 9i, 4-Methoxy-N-((4-methylquinazolin-2-yl)methyl)-N-(3,4,5-trimethoxyphenyl) benzene-sulfonamide]
Hippo signalling pathway; MGC-803 and SGC-7901 cells
  MST1 and SAV levels: did not show an obvious change
  level of TEAD: not changed
  level of YAP: reduced level of YAP
  p-LATS level: up-regulated
Hippo signalling pathway; MGC-803 and SGC-7901 cells, dose and time-dependent
  phosphorylation of YAP: up-regulated the phosphorylation of YAP
Hippo signalling pathway; two gastric cancer cells, mRNA and protein
  Bcl-2 and c-Myc expression: down-regulated at mRNA and protein levels
HGC-27 cells; Homo sapiens, HGC-27, MTT, exposure for 48 h
  IC50: 458 nM
HGC-27 cells; high dosage group, 48 h
  inhibition ratio against HGC-27 cells: above 50%
MGC-803 xenograft tumour; daily intraperitoneal injection for 21 days
  tumour growth (tumour volume): inhibited tumour growth in vivo
MGC-803 xenograft tumour; daily intraperitoneal injection for 21 days, versus vehicle group
  tumour weight inhibition rate: over 60%
MGC-803 xenograft tumour; tumour tissues after 21 days treatment
  expression of YAP, Bcl-2 and c-Myc in tumour tissues: significantly down-regulated
tubulin
  influence on tubulin polymerization: no strong influence
[1]
  colony formation: significantly decreased
SGC-7901 cells
  IC50: 376 nM
